Experimental data published in PubChem BioAssay AID2060896 (Molecular Pharmacology Branch, DTP, NCI, 2025).

System: 941728-121-R-J1-PDC complex spheroid viability
Assay: Anticancer human tumor 941728-121-R-J1-PDC patient-derived lung adenocarcinoma cell line growth inhibition [RAS]
Conditions: for IC50: curve of first compound; for viability, T/C: stronger effect = lower value
Summary of the method: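 Multi-cell-type spheroids: tumor cells plus HUVEC endothelial cells and mesenchymal stem cells. RAS-pathway inhibitors were combined with targeted agents, each dosed in half-log steps down from clinical Cmax, or from 10 microM when Cmax was unknown.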

[1] = second compound 0.0316 µM, first compound 0.00316 µM
[2] = second compound 0.0316 µM, first compound 0.01 µM
[3] = second compound 0.0316 µM, first compound 0.0316 µM
[4] = second compound 0.0316 µM, first compound 0.1 µM
[5] = second compound 0.0316 µM, first compound 0.316 µM
[6] = second compound 0.0316 µM, first compound 1 µM
[7] = second compound 0.1 µM, first compound 0.00316 µM
[8] = second compound 0.1 µM, first compound 0.01 µM
[9] = second compound 0.1 µM, first compound 0.0316 µM
[10] = second compound 0.1 µM, first compound 0.1 µM
[11] = second compound 0.1 µM, first compound 0.316 µM
[12] = second compound 0.1 µM, first compound 1 µM
[13] = second compound 0.316 µM, first compound 0.00316 µM
[14] = second compound 0.316 µM, first compound 0.01 µM
[15] = second compound 0.316 µM, first compound 0.0316 µM
[16] = second compound 0.316 µM, first compound 0.1 µM
[17] = second compound 0.316 µM, first compound 0.316 µM
[18] = second compound 0.316 µM, first compound 1 µM
[19] = second compound 1 µM, first compound 0.00316 µM
[20] = second compound 1 µM, first compound 0.01 µM
[21] = second compound 1 µM, first compound 0.0316 µM
[22] = second compound 1 µM, first compound 0.1 µM
[23] = second compound 1 µM, first compound 0.316 µM
[24] = second compound 1 µM, first compound 1 µM
[25] = second compound 0.0316 µM, first compound 0.000949 µM
[26] = second compound 0.0316 µM, first compound 0.003 µM
[27] = second compound 0.0316 µM, first compound 0.00949 µM
[28] = second compound 0.0316 µM, first compound 0.03 µM
[29] = second compound 0.0316 µM, first compound 0.0949 µM
[30] = second compound 0.0316 µM, first compound 0.3 µM
[31] = second compound 0.1 µM, first compound 0.000949 µM
[32] = second compound 0.1 µM, first compound 0.003 µM
[33] = second compound 0.1 µM, first compound 0.00949 µM
[34] = second compound 0.1 µM, first compound 0.03 µM
[35] = second compound 0.1 µM, first compound 0.0949 µM
[36] = second compound 0.1 µM, first compound 0.3 µM
[37] = second compound 0.316 µM, first compound 0.000949 µM
[38] = second compound 0.316 µM, first compound 0.003 µM
[39] = second compound 0.316 µM, first compound 0.00949 µM
[40] = second compound 0.316 µM, first compound 0.03 µM
[41] = second compound 0.316 µM, first compound 0.0949 µM
[42] = second compound 0.316 µM, first compound 0.3 µM
[43] = second compound 1 µM, first compound 0.000949 µM
[44] = second compound 1 µM, first compound 0.003 µM
[45] = second compound 1 µM, first compound 0.00949 µM
[46] = second compound 1 µM, first compound 0.03 µM
[47] = second compound 1 µM, first compound 0.0949 µM
[48] = second compound 1 µM, first compound 0.3 µM
[49] = second compound 3.16 µM, first compound 0.000949 µM
[50] = second compound 3.16 µM, first compound 0.003 µM
[51] = second compound 3.16 µM, first compound 0.00949 µM
[52] = second compound 3.16 µM, first compound 0.03 µM
[53] = second compound 3.16 µM, first compound 0.0949 µM
[54] = second compound 3.16 µM, first compound 0.3 µM
[55] = second compound 10 µM, first compound 0.000949 µM
[56] = second compound 10 µM, first compound 0.003 µM
[57] = second compound 10 µM, first compound 0.00949 µM
[58] = second compound 10 µM, first compound 0.03 µM
[59] = second compound 10 µM, first compound 0.0949 µM
[60] = second compound 10 µM, first compound 0.3 µM
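Also: spheroids exposed to compounds for 7 days before readout.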
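For viability, T/C in this document: 100% = DMSO vehicle control viability.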

C=CC(=O)N1CCN(c2nc(OCC3CCCN3C)nc3c(F)c(-c4nc(N)cc(C)c4C(F)(F)F)c(Cl)cc23)C(C)C1 (stereo not drawn) + C#Cc1c(F)ccc2cc(O)cc(-c3ncc4c(N5CC6CCC(C5)N6)nc(OCC56CCCN5CC(F)C6)nc4c3F)c12
IC50 (second compound 0.0316 µM): < 3.16 nM | IC50 (second compound 0.1 µM): < 3.16 nM | IC50 (second compound 0.316 µM): < 3.16 nM | IC50 (second compound 1 µM): < 3.16 nM | IC50 (second compound 3.16 µM): < 3.16 nM | IC50 (second compound 10 µM): < 3.16 nM | viability, T/C [1]: 22.3% | viability, T/C [2]: 20.1% | viability, T/C [3]: 18.7% | viability, T/C [4]: 21% | viability, T/C [5]: 22.6% | viability, T/C [6]: 21.2% | viability, T/C [7]: 22.9% | viability, T/C [8]: 19.5% | viability, T/C [9]: 21.8% | viability, T/C [10]: 20.7% | viability, T/C [11]: 19.8% | viability, T/C [12]: 23.9% | viability, T/C [13]: 22.1% | viability, T/C [14]: 22.2% | viability, T/C [15]: 21% | viability, T/C [16]: 23.4% | viability, T/C [17]: 20.7% | viability, T/C [18]: 21.4% | viability, T/C [19]: 21.3% | viability, T/C [20]: 19.5% | viability, T/C [21]: 22% | viability, T/C [22]: 21.5% | viability, T/C [23]: 22.2% | viability, T/C [24]: 22.5% | viability, T/C (second compound 3.16 µM, first compound 0.00316 µM): 22.8% | viability, T/C (second compound 3.16 µM, first compound 0.01 µM): 20.1% | viability, T/C (second compound 3.16 µM, first compound 0.0316 µM): 22% | viability, T/C (second compound 3.16 µM, first compound 0.1 µM): 20.3% | viability, T/C (second compound 3.16 µM, first compound 0.316 µM): 22% | viability, T/C (second compound 3.16 µM, first compound 1 µM): 22.3% | viability, T/C (second compound 10 µM, first compound 0.00316 µM): 21.9% | viability, T/C (second compound 10 µM, first compound 0.01 µM): 21.1% | viability, T/C (second compound 10 µM, first compound 0.0316 µM): 17.5% | viability, T/C (second compound 10 µM, first compound 0.1 µM): 17.8% | viability, T/C (second compound 10 µM, first compound 0.316 µM): 18.2% | viability, T/C (second compound 10 µM, first compound 1 µM): 14.7%

CC1(C)CCC(Nc2ncc(C(F)(F)F)c(-c3c[nH]c4c(P(C)(C)=O)c(C#N)ccc34)n2)CN1 (stereo not drawn) + C#Cc1c(F)ccc2cc(O)cc(-c3ncc4c(N5CC6CCC(C5)N6)nc(OCC56CCCN5CC(F)C6)nc4c3F)c12
IC50 (second compound 0.0316 µM): > 300 nM | IC50 (second compound 0.1 µM): > 300 nM | IC50 (second compound 0.316 µM): < 0.949 nM | IC50 (second compound 1 µM): < 0.949 nM | IC50 (second compound 3.16 µM): < 0.949 nM | IC50 (second compound 10 µM): < 0.949 nM | viability, T/C [25]: 71.4% | viability, T/C [26]: 58.2% | viability, T/C [27]: 53.7% | viability, T/C [28]: 48% | viability, T/C [29]: 49.9% | viability, T/C [30]: 54.6% | viability, T/C [31]: 68.5% | viability, T/C [32]: 53.6% | viability, T/C [33]: 55.5% | viability, T/C [34]: 52.7% | viability, T/C [35]: 50.5% | viability, T/C [36]: 49.4% | viability, T/C [37]: 51.5% | viability, T/C [38]: 46.7% | viability, T/C [39]: 38.5% | viability, T/C [40]: 45.4% | viability, T/C [41]: 44.4% | viability, T/C [42]: 49.6% | viability, T/C [43]: 33.8% | viability, T/C [44]: 40.2% | viability, T/C [45]: 35.6% | viability, T/C [46]: 36.3% | viability, T/C [47]: 38.6% | viability, T/C [48]: 38.9% | viability, T/C [49]: 30.9% | viability, T/C [50]: 30.8% | viability, T/C [51]: 33.6% | viability, T/C [52]: 35.1% | viability, T/C [53]: 34.4% | viability, T/C [54]: 34.5% | viability, T/C [55]: 23% | viability, T/C [56]: 30.1% | viability, T/C [57]: 24.3% | viability, T/C [58]: 24.9% | viability, T/C [59]: 27.5% | viability, T/C [60]: 26%

CCc1c2c(nc3ccc(O)cc13)-c1cc3c(c(=O)n1C2)COC(=O)[C@]3(O)CC + C#Cc1c(F)ccc2cc(O)cc(-c3ncc4c(N5CC6CCC(C5)N6)nc(OCC56CCCN5CC(F)C6)nc4c3F)c12
IC50 (second compound 0.0316 µM): 26.2 nM | IC50 (second compound 0.1 µM): 12.2 nM | IC50 (second compound 0.316 µM): < 0.949 nM | IC50 (second compound 1 µM): < 0.949 nM | IC50 (second compound 3.16 µM): < 0.949 nM | IC50 (second compound 10 µM): < 0.949 nM | viability, T/C [25]: 77.8% | viability, T/C [26]: 61.1% | viability, T/C [27]: 54.1% | viability, T/C [28]: 49.8% | viability, T/C [29]: 51.6% | viability, T/C [30]: 40.5% | viability, T/C [31]: 69.4% | viability, T/C [32]: 58.8% | viability, T/C [33]: 45% | viability, T/C [34]: 53.6% | viability, T/C [35]: 48.4% | viability, T/C [36]: 39.9% | viability, T/C [37]: 52.9% | viability, T/C [38]: 42.4% | viability, T/C [39]: 42.5% | viability, T/C [40]: 42.6% | viability, T/C [41]: 44.7% | viability, T/C [42]: 34.6% | viability, T/C [43]: 34.8% | viability, T/C [44]: 37.9% | viability, T/C [45]: 30.6% | viability, T/C [46]: 31.8% | viability, T/C [47]: 32.4% | viability, T/C [48]: 29% | viability, T/C [49]: 25.6% | viability, T/C [50]: 26.1% | viability, T/C [51]: 26.7% | viability, T/C [52]: 23.5% | viability, T/C [53]: 21.4% | viability, T/C [54]: 19% | viability, T/C [55]: 21.9% | viability, T/C [56]: 18.5% | viability, T/C [57]: 18.6% | viability, T/C [58]: 14.8% | viability, T/C [59]: 13.3% | viability, T/C [60]: 8.73%

C=CC(=O)Nc1cc(Nc2nccc(-c3cn(C)c4ccccc34)n2)c(OC)cc1N(C)CCN(C)C + C=CC(=O)N1CCN(c2nc(OCC3CCCN3C)nc3c(F)c(-c4nc(N)cc(C)c4C(F)(F)F)c(Cl)cc23)C(C)C1
IC50 (second compound 0.00316 µM): < 3.16 nM | IC50 (second compound 0.01 µM): < 3.16 nM | IC50 (second compound 0.0316 µM): < 3.16 nM | IC50 (second compound 0.1 µM): < 3.16 nM | IC50 (second compound 0.316 µM): < 3.16 nM | IC50 (second compound 1 µM): < 3.16 nM | viability, T/C (second compound 0.00316 µM, first compound 0.00316 µM): 17.3% | viability, T/C (second compound 0.00316 µM, first compound 0.01 µM): 25.6% | viability, T/C (second compound 0.00316 µM, first compound 0.0316 µM): 17.1% | viability, T/C (second compound 0.00316 µM, first compound 0.1 µM): 21.1% | viability, T/C (second compound 0.00316 µM, first compound 0.316 µM): 17.6% | viability, T/C (second compound 0.00316 µM, first compound 1 µM): 16.7% | viability, T/C (second compound 0.01 µM, first compound 0.00316 µM): 20.4% | viability, T/C (second compound 0.01 µM, first compound 0.01 µM): 18.3% | viability, T/C (second compound 0.01 µM, first compound 0.0316 µM): 19.5% | viability, T/C (second compound 0.01 µM, first compound 0.1 µM): 18.2% | viability, T/C (second compound 0.01 µM, first compound 0.316 µM): 14.4% | viability, T/C (second compound 0.01 µM, first compound 1 µM): 17.3% | viability, T/C [1]: 18.4% | viability, T/C [2]: 16.9% | viability, T/C [3]: 17.2% | viability, T/C [4]: 17.9% | viability, T/C [5]: 17.5% | viability, T/C [6]: 15.8% | viability, T/C [7]: 21.1% | viability, T/C [8]: 19.7% | viability, T/C [9]: 15.5% | viability, T/C [10]: 15.8% | viability, T/C [11]: 18.7% | viability, T/C [12]: 16.4% | viability, T/C [13]: 19.8% | viability, T/C [14]: 18.1% | viability, T/C [15]: 15.7% | viability, T/C [16]: 17.1% | viability, T/C [17]: 19.7% | viability, T/C [18]: 15.6% | viability, T/C [19]: 20.6% | viability, T/C [20]: 15.7% | viability, T/C [21]: 18.2% | viability, T/C [22]: 17.3% | viability, T/C [23]: 18.9% | viability, T/C [24]: 16.2%
